pEC50, pIC50: −log10 of the molar value.
Tests used:
Male C57BL6/j mice = experiment: Amphetamine model of schizophrenia (amphetamine-induced locomotor activity); format: in vivo; conditions: 30 mg/kg ip, 120 min before amphetamine 3.0 mg/kg s.c., first 30 minutes of a 60 minute session
From the text: Amphetamine-induced increases in locomotor ambulation are well known and are widely used as a model of the positive symptoms of schizophrenia. This model is based on evidence that amphetamine increases motor behaviors and can induce a psychotic state in humans (Yui et al. (2000) Ann. N.Y. Acad. Sci. 914:1-12). Further, it is well known that amphetamine-induced increases in locomotor activity are blocked by antipsychotics drugs that are effective in the treatment of schizophrenia (Arnt (1995) Eur. J. Pharmacol. 283:55-62).
Subjects: The present studies were performed in accordance with the animal care and use policies of Addex Pharmaceuticals and the laws and directives of Switzerland governing the care and use of animals. Male C57BL6/j mice (20-30 g) 7 weeks of age at the time of delivery were group housed in a temperature and humidity controlled facility on a 12 hour light/dark cycle for at least 7 days before use. Mice had access to food and water ad libitum except during locomotor activity experiments.
Assessment of locomotor (ambulatory) activity: The effects of compounds on amphetamine-induced locomotor activation in mice were tested. […] Locomotor activity (ambulations) was monitored by a videotracking system (VideoTrack, Viewpoint, Champagne au Mont d'Or, France) that recorded the ambulatory movements of mice. […] On test days, test compounds (10, 30, 50 or 100 mg/kg i.p. (intraperitoneal)) or vehicle were administered 120 minutes before amphetamine (3.0 mg/kg s.c.) or saline injection: Mice were placed into the locomotor boxes immediately after amphetamine or saline vehicle injection and their locomotor activity, defined as the distance traveled in centimeters (cm), was measured for 60 minutes.
Compound administration: The test compound was dissolved in a 5% DMSO/20% Tween 80/75% saline vehicle and administered in a volume of 10 ml/kg. […] D-amphetamine sulfate (Amino A G, Neuenhof, Switzerland) was dissolved in saline and administered at a dose of 3.0 mg/kg s.c. (expressed as the base) in a volume of 10 ml/kg. […]

mGluR5 = target: T1, mGluR5 (Rattus norvegicus, UniProt P31424); experiment: mGluR5 binding assay ([3H]-MPEP, rat brain membranes); conditions: 3 nM [3H]-MPEP, rat cortical membranes, 1 h at 4° C.; read-out: IC50, inhibition of [3H]-MPEP binding
T1 construct: positive allosteric modulators of mGluR5 receptors in native preparations; endogenous in cells; host or cells: primary cortical astrocytes from Sprague-Dawley rat embryos (E16-19)
T1 sequence (P31424 21-1203): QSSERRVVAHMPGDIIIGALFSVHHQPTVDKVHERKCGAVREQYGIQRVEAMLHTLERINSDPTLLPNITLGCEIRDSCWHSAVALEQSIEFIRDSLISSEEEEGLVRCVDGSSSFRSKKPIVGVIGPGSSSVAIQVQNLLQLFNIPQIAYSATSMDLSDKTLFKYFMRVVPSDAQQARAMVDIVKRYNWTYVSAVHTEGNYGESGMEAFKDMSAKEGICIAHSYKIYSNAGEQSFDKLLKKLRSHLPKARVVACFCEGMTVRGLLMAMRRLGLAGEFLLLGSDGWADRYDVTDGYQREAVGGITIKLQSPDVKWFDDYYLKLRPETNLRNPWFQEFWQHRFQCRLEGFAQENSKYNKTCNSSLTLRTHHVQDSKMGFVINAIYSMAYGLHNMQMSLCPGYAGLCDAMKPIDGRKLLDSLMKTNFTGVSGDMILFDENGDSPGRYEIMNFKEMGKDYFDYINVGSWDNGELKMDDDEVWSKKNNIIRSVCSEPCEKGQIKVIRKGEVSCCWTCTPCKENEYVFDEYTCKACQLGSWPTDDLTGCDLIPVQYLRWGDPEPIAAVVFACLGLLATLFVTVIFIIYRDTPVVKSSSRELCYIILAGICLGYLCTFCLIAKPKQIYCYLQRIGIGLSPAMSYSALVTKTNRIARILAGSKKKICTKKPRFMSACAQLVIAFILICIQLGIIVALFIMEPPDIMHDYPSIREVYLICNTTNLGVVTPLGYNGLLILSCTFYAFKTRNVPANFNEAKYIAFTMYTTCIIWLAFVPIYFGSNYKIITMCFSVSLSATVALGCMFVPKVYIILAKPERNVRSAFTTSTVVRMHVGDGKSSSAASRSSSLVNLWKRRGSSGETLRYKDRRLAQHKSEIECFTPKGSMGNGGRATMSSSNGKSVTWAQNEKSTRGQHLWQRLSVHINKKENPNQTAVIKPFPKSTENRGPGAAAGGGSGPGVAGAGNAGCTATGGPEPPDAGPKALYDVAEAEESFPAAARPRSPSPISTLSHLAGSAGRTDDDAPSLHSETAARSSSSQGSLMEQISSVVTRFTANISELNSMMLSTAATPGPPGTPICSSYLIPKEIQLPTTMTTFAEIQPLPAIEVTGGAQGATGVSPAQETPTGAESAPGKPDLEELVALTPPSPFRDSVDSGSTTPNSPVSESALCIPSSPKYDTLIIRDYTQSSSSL
From the text: Activity of compounds of the invention was examined following a radioligand binding technique using whole rat brain and tritiated 2-methyl-6-(phenylethynyl)-pyridine ([^3H]-MPEP) as a ligand following similar methods than those described in Gasparini et al. (2002) Bioorg. Med. Chem. Lett. 12:407-409 and in Anderson et al. (2002) J. Pharmacol. Exp. Ther. 303 (3) 1044-1051.
Cortices were dissected out from brains of 200-300 g Sprague-Dawley rats (Charles River Laboratories, L'Arbresle, France). Tissues were homogenized in 10 volumes (vol/wt) of ice-cold 50 mM Hepes-NaOH (pH 7.4) using a Polytron disrupter (Kinematica A G, Luzern, Switzerland) and centrifuged for 30 min at 40,000 g. (4° C.). […] Protein concentration was determined by the Bradford method (Bio-Rad protein assay, Reinach, Switzerland) with bovine serum albumin as standard.
Membranes were thawed and resuspended in binding buffer containing 20 mM HEPES-NaOH, 3 mM MgCl2, 3 mM CaCl2, 100 mM NaCl, pH 7.4. […] Radioactivity was determined by liquid scintillation spectrometry using a 96-well plate reader (TopCount, Perkin-Elmer, Downers Grove, USA).
The inhibition curves were generated using the Prism GraphPad program (Graph Pad Software Inc, San Diego, USA). […] The mean of IC50 obtained from at least three independent experiments of selected molecules performed in duplicate were calculated.

rat mGluR5 receptor = target: T2, rat mGluR5 receptor (Rattus norvegicus, UniProt P31424); experiment: mGluR5 assay on HEK-expressing rat mGluR5 (fluorescent cell based Ca2+ mobilization assay); conditions: HEK-293 cells stably expressing rat mGluR5; no co-addition of glutamate; mean of at least three independent experiments in duplicate; read-out: Ca++ Flux (mean EC50)
T2 construct: expressed in transfected cells
T2 sequence (P31424 21-1171 isoform P31424-2 limits assumed): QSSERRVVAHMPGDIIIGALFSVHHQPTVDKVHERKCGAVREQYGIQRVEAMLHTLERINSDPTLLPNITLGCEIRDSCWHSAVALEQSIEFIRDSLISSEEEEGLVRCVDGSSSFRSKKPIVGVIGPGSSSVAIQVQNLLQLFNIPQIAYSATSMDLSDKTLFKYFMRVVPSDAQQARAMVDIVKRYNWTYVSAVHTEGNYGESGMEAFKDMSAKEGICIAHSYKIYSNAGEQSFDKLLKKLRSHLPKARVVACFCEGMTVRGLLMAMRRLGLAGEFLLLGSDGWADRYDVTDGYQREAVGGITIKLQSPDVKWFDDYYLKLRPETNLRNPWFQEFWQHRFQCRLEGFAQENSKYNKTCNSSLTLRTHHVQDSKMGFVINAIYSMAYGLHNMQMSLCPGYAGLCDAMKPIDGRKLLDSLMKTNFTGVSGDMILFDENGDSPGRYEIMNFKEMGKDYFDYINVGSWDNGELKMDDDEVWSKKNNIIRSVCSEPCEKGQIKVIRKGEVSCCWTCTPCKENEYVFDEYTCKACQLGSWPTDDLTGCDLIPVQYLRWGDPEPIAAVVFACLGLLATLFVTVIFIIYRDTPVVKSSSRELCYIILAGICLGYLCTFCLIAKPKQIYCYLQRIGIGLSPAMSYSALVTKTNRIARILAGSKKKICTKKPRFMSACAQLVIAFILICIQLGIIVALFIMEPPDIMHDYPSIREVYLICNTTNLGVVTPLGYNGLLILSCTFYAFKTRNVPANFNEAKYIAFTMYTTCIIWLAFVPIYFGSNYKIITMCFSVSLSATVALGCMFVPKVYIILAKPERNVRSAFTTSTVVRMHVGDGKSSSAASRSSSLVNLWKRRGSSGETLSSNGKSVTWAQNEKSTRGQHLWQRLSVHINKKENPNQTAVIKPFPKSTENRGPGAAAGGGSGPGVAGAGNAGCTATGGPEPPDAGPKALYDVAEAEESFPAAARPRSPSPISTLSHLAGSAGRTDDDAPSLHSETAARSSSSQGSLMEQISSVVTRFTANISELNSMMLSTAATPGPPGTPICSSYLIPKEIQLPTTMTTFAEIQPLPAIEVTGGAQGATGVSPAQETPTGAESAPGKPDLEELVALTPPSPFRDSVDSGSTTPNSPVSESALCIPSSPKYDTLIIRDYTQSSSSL
Description: Positive functional expression of HEK-293 cells stably expressing rat mGluR5 receptor was determined by measuring intracellular Ca^2+ changes using a Fluorometric Imaging Plate Reader (FLIPR, Molecular Devices, Sunnyvale, Calif.) in response to glutamate or selective known mGluR5 agonists and antagonists. Rat mGluR5 RT-PCR products in HEK-293 cells were sequenced and found 100% identical to rat mGluR5 Genbank reference sequence (NM_017012). HEK-293 cells expressing rmGluR5 were maintained in media containing DMEM, dialyzed Fetal Bovine Serum (10%), Glutamax™ (2 mM), Penicillin (100 units/ml), Streptomycin (100 μg/ml), Geneticin (100 μg/ml) and Hygromycin-B (40 μg/ml) at 37° C./5% CO2.
After one day of incubation, cells were washed with assay buffer containing: 142 mM NaCl, 6 mM KCl, 1 mM Mg2SO4, 1 mM CaCl2, 20 mM HEPES, 1 g/L glucose, 0.125 mM sulfinpyrazone, pH 7.4. After 60 min of loading with 4 uM Fluo-4 (TefLabs, Austin, Tex.), the cells were washed three times with 50 μl of PBS Buffer and resuspended in […] of assay Buffer. The plates were then transferred to a Fluorometric Imaging Plate Reader (FLIPR, Molecular Devices, Sunnyvale, Calif.) for the assessment of intracellular calcium flux. After monitoring the baseline fluorescence for 10 seconds, increasing concentrations of representative compound (from 0.01 to 60 μM) of the present invention diluted in Assay Buffer (15 μl of 4× dilutions) was added to the cell. The final DMSO concentration in the assay was 0.3%. In each experiment, fluorescence was then monitored as a function of time for 3 minutes and the data analyzed using Microsoft Excel and GraphPad Prism. Each data point was also measured two times.
Under these experimental conditions, this HEK-rat mGluR5 cell line is able to directly detect positive allosteric modulators without the need of co-addition of glutamate or mGluR5 agonist.
The concentration-response curves of representative compounds of the present invention were generated using the Prism GraphPad software (Graph Pad Inc, San Diego, USA). The curves were fitted to a four-parameter logistic equation:
(Y=Bottom+(Top-Bottom)/(1+10̂((Log EC50−X)*Hill Slope)
allowing determination of EC50 values.
The Table 1 below represents the mean EC50 obtained from at least three independent experiments of selected molecules performed in duplicate.

With `O=C(c1ccc(F)cc1)N1CCC[C@H](c2noc(-c3ccc(F)cc3)n2)C1` [Example 1, (4-Fluoro-phenyl)-{(S)-3-[5-(4-fluoro-phenyl)-[1,2,4]oxadiazol-3-yl]-piperidin-1-yl}-methanone] the “increase in locomotor activity induced by amphetamine” value (from here on “increase”) (Male C57BL6/j mice) was “significantly attenuated”, the “increase” value (Male C57BL6/j mice; listed as compound # 1) was “significantly attenuated” and the “increase” value (Male C57BL6/j mice; listed as example #1) was “significantly attenuate”. For the same compound, the pIC50 (mGluR5) was > 4.52, the pEC50 (rat mGluR5 receptor) was > 6.00 and the melting point was 157 to 160 °C.

From US20090215822A1, “Substituted Oxadiazole Derivatives as Positive Allosteric Modulators of Metabotropic Glutamate Receptors” (NIKEM RESEARCH SRL, priority 2005, published 2009)
